Experimental data from the NIST ThermoML archive (doi:10.1021/je050056e).
± gives the expanded uncertainty stated by the source.

Details: Liquid; for mass density: 101.33 kPa

FC(F)(F)C(F)(F)C(F)(F)C(F)(F)C(F)(F)C(F)(F)C(F)(F)C(F)(F)Br [1-bromoperfluorooctane]
Details | mass density [kg/m3] | vapor or sublimation pressure [kPa]
288.15 K | 1938.6 ± 1.9 | –
288.22 K | – | 0.38 ± 0.02
293.15 K | 1926.7 ± 1.9 | –
293.2 K | – | 0.54 ± 0.03
298.08 K | – | 0.69 ± 0.04
298.15 K | 1914.8 ± 1.9 | –
303.15 K | 1902.8 ± 1.9 | –
303.26 K | – | 0.98 ± 0.05
308.15 K | 1890.8 ± 1.8 | –
308.22 K | – | 1.3 ± 0.06
313.15 K | 1878.6 ± 1.8 | –
313.18 K | – | 1.67 ± 0.06
318.09 K | – | 2.24 ± 0.07
322.92 K | – | 2.89 ± 0.08
327.88 K | – | 3.69 ± 0.08
332.78 K | – | 4.7 ± 0.09

FC(F)C(F)(F)C(F)(F)C(F)(F)C(F)(F)C(F)(F)C(F)(F)C(F)(F)F [1H-perfluorooctane]
Details | mass density [kg/m3] | vapor or sublimation pressure [kPa]
288.15 K | 1773.6 ± 1.6 | –
288.35 K | – | 1.18 ± 0.06
293.15 K | 1761.8 ± 1.6 | –
293.26 K | – | 1.6 ± 0.06
298.15 K | 1749.9 ± 1.6 | –
298.26 K | – | 2.18 ± 0.07
303.15 K | 1737.9 ± 1.6 | –
303.19 K | – | 2.84 ± 0.07
308.15 K | 1725.8 ± 1.6 | 3.72 ± 0.08
313.13 K | – | 4.87 ± 0.1
313.15 K | 1713.6 ± 1.6 | –
318.06 K | – | 6.22 ± 0.11
323.01 K | – | 8.07 ± 0.13
328 K | – | 10.25 ± 0.15
332.89 K | – | 12.83 ± 0.17

FC(F)(F)C(F)(F)C(F)(F)C(F)(F)C(F)(F)C(F)(F)C(F)(F)C(F)(F)C(F)(F)F [eicosafluorononane]
Details | mass density [kg/m3] | vapor or sublimation pressure [kPa]
288.15 K | 1812.2 ± 1.7 | –
288.18 K | – | 0.68 ± 0.04
293.15 K | 1800.1 ± 1.7 | –
293.18 K | – | 0.94 ± 0.05
298.11 K | – | 1.29 ± 0.07
298.15 K | 1787.9 ± 1.7 | –
303.1 K | – | 1.71 ± 0.06
303.15 K | 1775.7 ± 1.7 | –
308.19 K | – | 2.32 ± 0.07
313.15 K | 1750.9 ± 1.6 | –
313.17 K | – | 3.06 ± 0.08
318.22 K | – | 3.99 ± 0.09
323.15 K | – | 5.14 ± 0.1
328.15 K | – | 6.59 ± 0.11
333.15 K | – | 8.42 ± 0.13

Fc1c(F)c(F)c(F)c(F)c1F [hexafluorobenzene]
Details | mass density [kg/m3] | vapor or sublimation pressure [kPa]
288.15 K | 1628.9 ± 1.4 | –
288.23 K | – | 6.9 ± 0.12
293.15 K | 1617.5 ± 1.4 | –
293.51 K | – | 9 ± 0.14
297.98 K | – | 11.16 ± 0.16
298.15 K | 1606.2 ± 1.4 | –
302.96 K | – | 14.2 ± 0.19
303.15 K | 1594.8 ± 1.4 | –
307.96 K | – | 17.93 ± 0.23
308.15 K | 1583.3 ± 1.3 | –
312.96 K | – | 22.25 ± 0.27
313.15 K | 1571.8 ± 1.3 | –
317.96 K | – | 27.56 ± 0.33
322.96 K | – | 33.85 ± 0.39
327.95 K | – | 41.16 ± 0.46
333.01 K | – | 49.95 ± 0.54

Fc1c(F)c(F)c(C(F)(F)F)c(F)c1F [octafluorotoluene]
Details | mass density [kg/m3] | vapor or sublimation pressure [kPa]
288.15 K | 1682.8 ± 1.5 | –
288.23 K | – | 2.18 ± 0.07
293.15 K | 1672.2 ± 1.5 | –
293.2 K | – | 2.95 ± 0.08
298.15 K | 1661.6 ± 1.5 | –
298.28 K | – | 3.87 ± 0.09
303.15 K | 1650.9 ± 1.4 | –
303.18 K | – | 5.09 ± 0.1
308.15 K | 1640.2 ± 1.4 | 6.54 ± 0.11
313.15 K | 1629.4 ± 1.4 | 8.43 ± 0.13
318.15 K | – | 10.69 ± 0.15
323.15 K | – | 13.38 ± 0.18
328.45 K | – | 16.86 ± 0.22
333.93 K | – | 21.31 ± 0.26

FC1(F)C(F)(F)C(F)(F)C2(F)C(F)(F)C(F)(F)C(F)(F)C(F)(F)C2(F)C1(F)F (centres undefined) [perfluorodecalin]
Details | mass density [kg/m3] | vapor or sublimation pressure [kPa]
288.15 K | 1952.8 ± 1.9 | –
288.25 K | – | 0.57 ± 0.03
293.15 K | 1941.7 ± 1.9 | –
293.25 K | – | 0.73 ± 0.04
298.15 K | 1930.5 ± 1.9 | –
298.21 K | – | 0.91 ± 0.05
303.15 K | 1919.2 ± 1.9 | –
303.29 K | – | 1.25 ± 0.06
308.23 K | – | 1.59 ± 0.06
313.15 K | 1896.6 ± 1.8 | –
313.22 K | – | 2.05 ± 0.07
318.21 K | – | 2.66 ± 0.07
323.18 K | – | 3.45 ± 0.08
328.17 K | – | 4.41 ± 0.09
333.2 K | – | 5.47 ± 0.1

FC(F)(F)C(F)(F)C(F)(F)C(F)(F)C(F)(F)C(F)(F)F [perfluorohexane]
Details | mass density [kg/m3] | vapor or sublimation pressure [kPa]
288.15 K | 1705.6 ± 1.5 | –
288.31 K | – | 18.78 ± 2
293.15 K | 1691 ± 1.5 | –
293.22 K | – | 23.58 ± 2
298.09 K | – | 29.28 ± 2
298.15 K | 1676.1 ± 1.5 | –
302.98 K | – | 36.19 ± 2
303.15 K | 1661.1 ± 1.5 | –
307.97 K | – | 44.38 ± 2
313.15 K | 1630.2 ± 1.4 | –
313.17 K | – | 54.56 ± 2.1
318.15 K | – | 65.86 ± 2.1
323.13 K | – | 78.91 ± 2.1
328.11 K | – | 94.08 ± 2.2
333.1 K | – | 111.39 ± 2.2
